According to ChEMBL document CHEMBL2163293, “Rational approaches to improving selectivity in drug design” (J Med Chem, 2012):

Target: Protease (Human immunodeficiency virus 1, UniProt Q9YQ12)
Assay: Inhibition of HIV1 protease

Chain of Protease (Q9YQ12 whole entry): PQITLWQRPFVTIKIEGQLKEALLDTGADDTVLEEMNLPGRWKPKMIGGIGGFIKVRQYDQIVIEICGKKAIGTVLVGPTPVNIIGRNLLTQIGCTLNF

- Ki: 0.02 nM
SMILES: CC(=O)N[C@H](C(=O)N[C@H](C(=O)N[C@@H](CC(C)C)[C@@H](O)CC(=O)N[C@@H](C)C(=O)N[C@@H](CC(C)C)[C@@H](O)CC(=O)O)C(C)C)C(C)C [ACETYLPEPSTATIN]
